The structures appear in SMILES notation. Residue numbers refer to the chain shown, from its start.

What is called IC50 is the midpoint of a concentration-inhibition curve. Low values mean greater potency, high ones weaker potency.

Test [1] concerns the target T1, human 5-HT3A receptor F199A mutant (Homo sapiens, UniProt P46098, F221A).
T1 sequence (P46098 24-478 F221A): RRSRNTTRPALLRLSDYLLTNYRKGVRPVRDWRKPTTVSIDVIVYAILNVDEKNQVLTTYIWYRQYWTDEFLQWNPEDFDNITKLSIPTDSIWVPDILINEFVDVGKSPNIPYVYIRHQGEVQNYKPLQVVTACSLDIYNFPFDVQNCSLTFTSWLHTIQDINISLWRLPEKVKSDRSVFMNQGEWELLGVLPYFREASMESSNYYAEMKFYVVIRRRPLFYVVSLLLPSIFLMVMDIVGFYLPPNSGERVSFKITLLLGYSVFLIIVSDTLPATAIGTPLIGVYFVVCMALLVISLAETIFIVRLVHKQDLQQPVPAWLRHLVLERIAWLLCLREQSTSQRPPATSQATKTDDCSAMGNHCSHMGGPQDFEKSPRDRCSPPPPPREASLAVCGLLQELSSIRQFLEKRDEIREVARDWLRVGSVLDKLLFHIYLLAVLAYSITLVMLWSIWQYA
The test is described as follows: Two-electrode voltage clamp, I5-HT inhibition, F199A mutant. Format: cell-based. To be noted: −80 mV. In general terms: Two-electrode voltage clamp is typically applied to oocytes expressing channels or transporters.
Protocol: Xenopus oocytes were used in this study as cells for expression of human 5-HT3A receptor. All female frogs used in this experiment were obtained from the Korean Xenopus Resource Center for Research (KXRCR000001). […] Isolated oocytes were incubated with ND96 incubation buffer (96 mM NaCl, 2 mM KCl, 1 mM MgCl2, 1.8 mM CaCl2, 5 mM HEPES, 2.5 mM sodium pyruvate, and 50 mg/mL gentamycin, pH 7.4) at 18 °C until the experiment was performed. Human 5-HT3A receptor mRNA was injected into oocytes using a nanoinjector (Drummond Scientific, Broomall, PA, USA) with a mineral-filled 10 μL microdispenser (VWR, Piscataway, NJ, USA).
For the experiment, induced-inward current was converted to digital data with pClamp 10 software (Axon Instruments, Union City, CA, USA). All experiments were performed at room temperature using an oocyte clamp equipped with Digidata. The membrane holding potential was −80 mV.
The voltage relationship experiment for confirming the relationship between induce-inward current and voltage, the voltage was varied from −80 mV to +60 mV using a ramp protocol. Each microelectrode was filled with 3 M KCl having a resistance of 0.2 MΩ. […] The rate of application of the reagent was 2 mL per minute. All recording data were analyzed using Clampfit 9.0 (Molecular Devices, San Jose, CA, USA).
Point mutation was performed using Pfu DNA polymerase (Quikchange II Site-Directed Mutagenesis Kit). Chimeric primer design for PCR was performed under appropriate primer design guidelines. […]

The target of test [2] is T2, human 5-HT3A receptor I180A mutant (Homo sapiens, UniProt P46098, V202A).
T2 sequence (P46098 24-478 V202A): T1 sequence (P46098 24-478 F221A) with V179A, A198F
The test is described as follows: Two-electrode voltage clamp, I5-HT inhibition, I180A mutant. The test is classed as cell-based. The procedure:
Human 5-HT3A receptor cDNA was linearized using restriction enzyme XhoI. In vitro transcription was performed using an mMESSAGE mMACHINE T7 Transcription Kit (Thermo Fisher Scientific, Waltham, MA, USA). The final mRNA product was dissolved in 1X Diethyl Pyrocarbonate (RNase-free water) at a final concentration of 1 μg/μL and kept in a deep-freezer at −80 °C until used.
Xenopus oocytes were used in this study as cells for expression of human 5-HT3A receptor. All female frogs used in this experiment were obtained from the Korean Xenopus Resource Center for Research (KXRCR000001). Xenopus management followed the guideline of Chonnam National University institution guidelines (CNU IACUC-YB-2016-07, July 2016). Xenopus oocytes were extracted during ice incubation state and isolated as single oocytes using collagenase II (2 mg/mL) in OR2 buffer (82.5 mM NaCl, 2 mM KCl, 1 mM MgCl2, 5 mM HEPES, pH 7.4). Isolated oocytes were incubated with ND96 incubation buffer (96 mM NaCl, 2 mM KCl, 1 mM MgCl2, 1.8 mM CaCl2, 5 mM HEPES, 2.5 mM sodium pyruvate, and […], pH 7.4) at 18 °C until the experiment was performed. Human 5-HT3A receptor mRNA was injected into oocytes using a nanoinjector (Drummond Scientific, Broomall, PA, USA) with a mineral-filled 10 μL microdispenser (VWR, Piscataway, NJ, USA).
To confirm the KAE activity on the human 5-HT3A receptor, a two-electrode voltage clamp (OC-725C; Warner Instruments, Hamden, CT, USA) with a Digitata 1550A was used. For the experiment, induced-inward current was converted to digital data with pClamp 10 software (Axon Instruments, Union City, CA, USA). […]
The voltage relationship experiment for confirming the relationship between induce-inward current and voltage, the voltage was varied from −80 mV to +60 mV using a ramp protocol. […] All recording data were analyzed using Clampfit 9.0 (Molecular Devices, San Jose, CA, USA). […]
All presented experiments were performed at least three times for scientific verification. […] Induced-inward current data were analyzed with SigmaPlot 10.0 software (Systat Software, Inc., San Jose, CA, USA). […]

With `O=c1c(O)c(-c2ccc(O)cc2)oc2cc(O)cc(O)c12` [KAE, kaempferol], the “n (Hill coefficient)” value in test [1] was 1.4 ± 0.4; in test [2] (I180A, −80 mV), 1.8 ± 0.6. Moreover, the values for the IC50 in test [1] (Table 1) and in test [2] were 21.5 ± 5.7 µM and 45.5 ± 12.9 µM, respectively. Moreover, the Vmax in test [1] (Table 1) worked out at 53.3 ± 10.4%. Besides, in test [2] (I180A, −80 mV, read-out: Vmax), the Emax came out at 89.5 ± 12.1%.

The values above are taken from publication PMC8745345, “Hydroxy Pentacyclic Triterpene Acid, Kaempferol, Inhibits the Human 5-Hydroxytryptamine Type 3A Receptor Activity” (International Journal of Molecular Sciences, 2022).
